This note sets out measurements from patent US20190321493A1, “MATERIALS AND METHODS FOR TREATING REGIONAL PAIN” (priority 2016, published 2019).

Data set [1] in a line: Drug distribution in DRG after convection enhanced delivery of DAPI. Conditions: FIG. 5. The data set is classed as in vivo, swine. From the text: FIGS. 5A-5C illustrate drug distribution in swine DRG. […] is a schematic of convection enhanced delivery (CED) needle placement in a DRG. FIG. 5B contains an image of a control DRG. FIG. 5C contains an image of a 4′,6-diamidino-2-phenylindole (DAPI) injected DRG.
An incision was made in the overlying skin at an anatomical level affected by pain in a patient. The subcutaneous fat and musculature were incised and reflected, exposing the bony lamina. Using appropriate instruments, a portion of the lamina was removed to expose the neural elements. The meningeal sleeve surrounding the DRG and spinal nerve was surgically exposed by microdissection of bone and tissue, which may require extending the laminectomy dissection, using standard techniques such as blunt or sharp dissection with meticulous hemostasis. Thereby the DRG was exposed and grossly visualized. A convection enhanced delivery needle was placed into the exposed DRG. RTXcap was injected in a preparation that also contains a contrast agent (e.g., in this case DAPI) allowing direct visualization of analgesic agent injection by eye sight with or without a surgical loupe or surgical operating microscope.

In data set [2] the test system is nociceptive neurons of the dorsal root ganglion (DRG). Briefly: MRI-guided intraganglionic injection of RTX (RTXcap) with gadoteridol into swine DRG, substance P immunohistochemistry. The format is in vivo. The text has this:
FIGS. 1A-1D are fluorescent immunohistochemistry (IHC) images. […] Nociceptive fibers in all panels are visualized using the biomarker substance P (sP).
FIGS. 2A-2C are fluorescent IHC images of a DRG. […] The outcomes in FIG. 2B and FIG. 2C were predicted from intraprocedural imaging performed during RTX delivery (noted as a success (B) and failure (C) to achieve the intended contrast media dispersion).
Domestic swine were chosen because the porcine lumbar spinal column resembles the human lumbosacral anatomy. Swine were sedated with Telazol and Xylazine, intubated and kept under deep isoflurane inhalation anesthesia for the duration of the procedure titrated to effect. Swine were placed in an MRI scanner (GE 3T, GE Healthcare). Overview MRI imaging was obtained of the lumbosacral spine. DRG at the L4, L5, S1, and S2 level were outlined (FIG. 1A).
The guide needle was passed through the skin lateral to the midline and incrementally advanced ventromedially toward the DRG intraprocedural MRI imaging monitored advancement of the needle, and any deviations from the optimal trajectory were corrected. When the needle tip was visualized directly adjacent to the dorsal aspect of the DRG, the stylet of the guide needle was withdrawn. The stepped stylet was then inserted through the guide needle. The length of the stepped stylet exceeded the length of the guide needle and therefore only the stepped tip of the stylet but not the Quincke tip of the guide needle penetrated the DRG parenchyma. The stepped stylet was then withdrawn and replaced by the stepped needle. The prior insertion of the stepped stylet prevented clogging of the narrow needle tip. RTX 5 μg and gadoteridol 1% V/V was injected in a volume of 50 μl per DRG over a period of 5 minutes (RTX was solubilized in water with sulfobutyl ether β-cyclodextrin, designated as RTXcap). MRI imaging verified when the injection was successful and when the injection needed to be repeated (FIG. 4). Pigs were sacrificed 5 weeks post injection and the tissues harvested for histopathological analysis.

Data set [3] relates to nociceptive fibers in the dorsal horn of the spinal cord. In words: Periganglionic (epidural) injection of RTX, immunohistochemistry of spinal cord dorsal horn. The format is in vivo, swine. As to conditions: FIG. 3B vs 3A.

Molecules are shown by their SMILES.

Consider `N=C(N)c1ccc(-c2cc3ccc(C(=N)N)cc3[nH]2)cc1` [DAPI, 4′,6-diamidino-2-phenylindole], for which the “distribution in DRG” value in data set [1] is given as “good distribution throughout the DRG”.

As for `C=C(C)[C@]12C[C@@H](C)[C@@]34O[C@](Cc5ccccc5)(O[C@@H]1[C@@H]3C=C(COC(=O)Cc1ccc(O)c(OC)c1)C[C@]1(O)C(=O)C(C)=C[C@@H]41)O2` [RTX, resiniferatoxin], the “neurolysis of the targeted tissue” value in data set [2] (RTX 5 μg + gadoteridol 1% V/V, 50 μl per DRG, tissues 5 weeks post injection) is “can result in neurolysis of the targeted tissue”. The “nociceptive neurons (sP fluorescence) in DRG” value is listed as “normal numbers of nociceptive neurons” in data set [2] (after failed image-guided injection, FIG. 2C) and “elimination of most nociceptive neurons” in data set [2] (after successful MRI-guided injection, FIG. 2B). Moreover, the “nociceptive fibers (substance P) in the dorsal horn of the spinal cord” value in data set [2] (intraganglionic injection, RTX solubilized in water with sulfobutyl ether β-cyclodextrin, FIG. 1B vs 1A) is “elimination of nociceptive fibers”. In addition, the “nociceptive fibers (substance P) in the dorsal root ganglion” value in data set [2] (intraganglionic injection, RTX solubilized in water with sulfobutyl ether β-cyclodextrin, FIG. 1D vs 1C) is “elimination of nociceptive fibers”. Besides, the “nociceptive fibers in the dorsal horn of the spinal cord” value in data set [3] was “elimination of nociceptive fibers”.
